One data set deals with Aspergillus ruber. The data set is described as follows: Antimicrobial activity, micro broth dilution assay. In kind it is cell-based. The procedure: (§1) The antimicrobial activity of selected compounds was determined by micro broth dilution assay.
In another data set the test system is Saccharomyces cerevisiae. In words: Antimicrobial activity, micro broth dilution assay. In kind it is cell-based. The method, then: as §1
For orientation: In broth dilution the organism is exposed to a series of concentrations in liquid medium.

Another data set has as its system Zygosaccharomyces bailii. In words: Antimicrobial activity, micro broth dilution assay. It is filed as cell-based. The procedure: as §1
The next data set concerns Penicillium roquefortii. The data set is described as follows: Antimicrobial activity, micro broth dilution assay. In kind it is cell-based. The procedure:
as §1

The test system of the next data set is Latilactobacillus sakei. The data set is described as follows: Antimicrobial activity, micro broth dilution assay. In kind it is cell-based. The procedure: as §1
Another data set deals with Penicillium chrysogenum. In words: Antimicrobial activity, micro broth dilution assay. It is filed as cell-based. The method, then:
as §1

The next data set deals with Penicillium paneum. In words: Antimicrobial activity, micro broth dilution assay. In kind it is cell-based. The procedure: as §1
The test system of the next data set is Bacillus subtilis. In words: Antimicrobial activity, micro broth dilution assay. In kind it is cell-based. The method, then:
as §1

Another data set has as its system Escherichia coli. In words: Antimicrobial activity, micro broth dilution assay. It is filed as cell-based. The method, then:
as §1

In a further data set the test system is Leuconostoc carnosum. In words: Antimicrobial activity, micro broth dilution assay. It is filed as cell-based. The procedure: as §1
The subject of another data set is Penicillium expansum. In words: Antimicrobial activity, micro broth dilution assay. In kind it is cell-based. The procedure: as §1
Another data set deals with Staphylococcus aureus. In words: Antimicrobial activity, micro broth dilution assay. In kind it is cell-based. The method, then:
as §1

In another data set the test system is Brettanomyces sp. The data set is described as follows: Antimicrobial activity, micro broth dilution assay. It is filed as cell-based. The procedure:
as §1

Data set [1] concerns Aspergillus montevidensis. In words: Antimicrobial activity, micro broth dilution assay. It is filed as cell-based. The procedure:
as §1

The next data set relates to Pseudomonas aeruginosa. In words: Antimicrobial activity, micro broth dilution assay. It is filed as cell-based. The method, then: as §1
A further data set relates to Candida parapsilosis. The data set is described as follows: Antimicrobial activity, micro broth dilution assay. It is filed as cell-based. As to conditions: Lodderomyces parapsilosis. The method, then:
as §1

The subject of a further data set is Byssochlamys nivea. The data set is described as follows: Antimicrobial activity, micro broth dilution assay. In kind it is cell-based. As to conditions: Paecilomyces niveus. The procedure:
as §1

A further data set deals with Neosartorya sp. The data set is described as follows: Antimicrobial activity, micro broth dilution assay. It is filed as cell-based. The method, then:
as §1

The nature of a further data set: Emulsification index E24. It is filed as physicochemical. As to conditions: surfactant solution 100 mg/liter; 2 ml hexadecane to 4 ml aqueous sample; measured 24 h later. The procedure: The emulsification index was determined by using a modification of a method described by Cooper and Goldenberg (APPLIED AND ENVIRONMENTAL MICROBIOLOGY, February 1987. p. 224-229). Surfactant solutions were prepared at 100 mg/liter. Emulsifier activity was measured by adding 2 ml of hexadecane to 4 ml of aqueous sample and vortexing at high speed for 1 min. Measurements were made 24 h later. The emulsion index (E24) was calculated using the equation E24(%)=[(height of emulsion layer)/(total height)]×100. Lutensol […] was used as positive control.

SMILES strings stand for the structures. Converted amounts (≈) assume the structure as drawn.

By MIC is commonly meant the lowest concentration that inhibits growth of the organism.

For the compound `CC(N)C(O)CCCCCCCCCCCCCCCCC(OC1OC(CO)C(O)C(O)C1O)C(C)O` (stereo not drawn) [B], the MIC against Aspergillus ruber was 500 µg/mL (≈ 933 µM); against Saccharomyces cerevisiae, 125 µg/mL (≈ 233 µM); in the data set on Zygosaccharomyces bailii it was 125 µg/mL (≈ 233 µM); in the data set with Penicillium roquefortii, 250 µg/mL (≈ 467 µM); in the data set on Latilactobacillus sakei, 500 µg/mL (≈ 933 µM); with Penicillium chrysogenum, 125 µg/mL (≈ 233 µM). The MIC is 500 µg/mL (≈ 933 µM) against Penicillium paneum; 250 µg/mL (≈ 467 µM) against Bacillus subtilis; 600 µg/mL (≈ 1120 µM) against Escherichia coli; > 500 µg/mL in the data set with Leuconostoc carnosum; 250 µg/mL (≈ 467 µM) in the data set on Penicillium expansum; 250 µg/mL (≈ 467 µM) against Staphylococcus aureus. The MIC against Brettanomyces sp is 125 µg/mL (≈ 233 µM); in data set [1], 500 µg/mL (≈ 933 µM); against Pseudomonas aeruginosa, 250 µg/mL (≈ 467 µM); against Candida parapsilosis, 250 µg/mL (≈ 467 µM); with Byssochlamys nivea it was 500 µg/mL (≈ 933 µM); with Neosartorya sp., 125 µg/mL (≈ 233 µM). This compound also came in with an E24 index in the data set “Emulsification index E24” of 99%.
As to `CC(O)C(CCCCCCCCCCCCCCCCC(O)C(C)NCC(=O)O)OC1OC(CO)C(O)C(O)C1O` (stereo not drawn) [C], the E24 index in the data set “Emulsification index E24” is listed as 100%.
Regarding `CC(N)C(O)CCCCCCCCCCCCCCC(OC1OC(CO)C(O)C(O)C1O)C(C)O` (stereo not drawn) [Compound A], the minimum inhibitory concentration (MIC) was found to be 125 µg/mL (≈ 246 µM) against Aspergillus ruber; 250 µg/mL (≈ 492 µM) against Saccharomyces cerevisiae; 125 µg/mL (≈ 246 µM) in the data set with Zygosaccharomyces bailii; 125 µg/mL (≈ 246 µM) with Penicillium roquefortii; 125 µg/mL (≈ 246 µM) with Latilactobacillus sakei; 125 µg/mL (≈ 246 µM) against Penicillium chrysogenum. The minimal inhibitory concentration (MIC) against Penicillium paneum came to 250 µg/mL (≈ 492 µM); against Bacillus subtilis, 250 µg/mL (≈ 492 µM); with Escherichia coli, 600 µg/mL (≈ 1180 µM); in the data set on Leuconostoc carnosum, 500 µg/mL (≈ 985 µM); with Penicillium expansum, 250 µg/mL (≈ 492 µM); with Staphylococcus aureus it was 250 µg/mL (≈ 492 µM). Further, the minimal inhibitory concentration (MIC) against Brettanomyces sp was 500 µg/mL (≈ 985 µM); in data set [1] it was 250 µg/mL (≈ 492 µM); against Pseudomonas aeruginosa, 600 µg/mL (≈ 1180 µM); against Candida parapsilosis it was 500 µg/mL (≈ 985 µM); in the data set with Byssochlamys nivea it was > 500 µg/mL; against Neosartorya sp., 500 µg/mL (≈ 985 µM). Besides, the E24 index in “Emulsification index E24” is listed as 95%.
In turn, `CC(O)C(CCCCCCCCCCCCCCCCC(O)C(C)NC=O)OC1OC(CO)C(O)C(O)C1O` (stereo not drawn) [Compound E] gave an E24 index in the data set “Emulsification index E24” of 65%.
As to `CC(N)C(O)C(O)CCCCCCCCCCCCCCCC(OC1OC(CO)C(O)C(O)C1O)C(C)O` (stereo not drawn) [Compound I], the E24 index in the data set “Emulsification index E24” is 95%.
Same read-out and setting: the value for `CC(O)C(CCCCCCCCCCCCCCCCC(O)C(C)OC1OC(CO)C(O)C(O)C1O)OC1OC(CO)C(O)C(O)C1O` (stereo not drawn) [D] was 90%; that for `CC(O)C(O)CCCCCCCCCCCCCCCCC(OC1OC(CO)C(O)C(O)C1O)C(C)O` (stereo not drawn) [F] was 100%.
Same read-out and setting: to `CC(O)C(CCCCCCCCCCCCCCCCC(O)C(C)NC(=O)CCC(=O)O)OC1OC(CO)C(O)C(O)C1O` (stereo not drawn) [H] belongs 94%; to `CC(N)C(O)/C=C/CCCCCCCCCCCCCCC(OC1OC(CO)C(O)C(O)C1O)C(C)O` (stereo not drawn) [J], 96%.

Values taken from patent US20240216248A1, “MICROBIAL GLYCOLIPIDS” (ANALYTICON DISCOVERY GMBH, priority 2021, published 2024).
